This passage reports inhibition and residual activity results from ChEMBL document CHEMBL5678810.

SMILES strings stand for the structures.

Experiment [1] deals with Peripheral plasma membrane protein CASK (Homo sapiens) (UniProt O14936). Kind of experiment: Inhibition of T7 bacteriophage fused human CASK at 10 uM by KINOMEscan analysis relative to control.
For experiment [2], the target named is Serine/threonine-protein kinase VRK2 (Homo sapiens) (UniProt Q86Y07). In words: Inhibition of T7 bacteriophage fused human VRK2 at 10 uM by KINOMEscan analysis relative to control.
The target in experiment [3] is Ribosomal protein S6 kinase alpha-1 (Homo sapiens) (UniProt Q15418). Kind of experiment: Inhibition of RSK1 domain1 Activation Loop labeling site in human HEL cell lysate at 10 uM by KiNativ profiling analysis relative to control. The experiment is classed as subcellular.
Experiment [4] deals with Protein kinase C eta type (Homo sapiens) (UniProt P24723). Kind of experiment: Inhibition of T7 bacteriophage fused human PRKCH at 10 uM by KINOMEscan analysis relative to control.
Experiment [5] addresses Serine/threonine-protein kinase Nek9 (Homo sapiens) (UniProt Q8TD19). Kind of experiment: Inhibition of T7 bacteriophage fused human NEK9 at 10 uM by KINOMEscan analysis relative to control.
Experiment [6] concerns the target Tyrosine-protein kinase JAK3 (Homo sapiens) (UniProt P52333). In words: Inhibition of T7 bacteriophage fused human JAK3 JH1catalytic domain at 10 uM by KINOMEscan analysis relative to control.
The target in experiment [7] is Serine/threonine-protein kinase MARK2 (Homo sapiens) (UniProt Q7KZI7). In words: Inhibition of T7 bacteriophage fused human MARK2 at 10 uM by KINOMEscan analysis relative to control.
Experiment [8] addresses Focal adhesion kinase 1 (Homo sapiens) (UniProt Q05397). In words: Inhibition of T7 bacteriophage fused human FAK at 10 uM by KINOMEscan analysis relative to control; values are per cent of control.
For experiment [9], the system named is Hepatocyte growth factor receptor (Homo sapiens), P08581 [Y1235D]. In words: Inhibition of T7 bacteriophage fused human MET Y1235D mutant at 10 uM by KINOMEscan analysis relative to control.
Experiment [10] relates to Phosphatidylinositol 4,5-bisphosphate 3-kinase catalytic subunit alpha isoform (Homo sapiens), P42336 [H1047L]. In words: Inhibition of T7 bacteriophage fused human PIK3CA H1047L mutant at 10 uM by KINOMEscan analysis relative to control.
Experiment [11] concerns the target Inhibitor of nuclear factor kappa-B kinase subunit alpha (Homo sapiens) (UniProt O15111). Kind of experiment: Inhibition of T7 bacteriophage fused human IKK-alpha at 10 uM by KINOMEscan analysis relative to control.
The target of experiment [12] is Cyclin-dependent kinase 11B (Homo sapiens) (UniProt P21127). In words: Inhibition of T7 bacteriophage fused human CDK11 at 10 uM by KINOMEscan analysis relative to control.
Experiment [13] addresses Serine/threonine-protein kinase DCLK1 (Homo sapiens) (UniProt O15075). In words: Inhibition of T7 bacteriophage fused human DCAMKL1 at 10 uM by KINOMEscan analysis relative to control; values are per cent of control.
Experiment [14] addresses SRSF protein kinase 2 (Homo sapiens) (UniProt P78362). In words: Inhibition of T7 bacteriophage fused human SRPK2 at 10 uM by KINOMEscan analysis relative to control.
Experiment [15] addresses Rhodopsin kinase GRK1 (Homo sapiens) (UniProt Q15835). Kind of experiment: Inhibition of T7 bacteriophage fused human GRK1 at 10 uM by KINOMEscan analysis relative to control; values are per cent of control.
Experiment [16] deals with Cyclin-dependent kinase 7 (Homo sapiens) (UniProt P50613). In words: Inhibition of T7 bacteriophage fused human CDK7 at 10 uM by KINOMEscan analysis relative to control.
The test system of experiment [17] is Epidermal growth factor receptor (Homo sapiens), P00533 [G719S]. In words: Inhibition of T7 bacteriophage fused human EGFR G719S mutant at 10 uM by KINOMEscan analysis relative to control.
For experiment [18], the target named is Mitogen-activated protein kinase kinase kinase 1 (Homo sapiens) (UniProt Q13233). Kind of experiment: Inhibition of T7 bacteriophage fused human MAP3K1 at 10 uM by KINOMEscan analysis relative to control; values are per cent of control.
For experiment [19], the target named is Tyrosine-protein kinase ABL1 (Homo sapiens) (UniProt P00519). In words: Inhibition of T7 bacteriophage fused human nonphosphorylated ABL1 at 10 uM by KINOMEscan analysis relative to control.
The target of experiment [20] is Serine/threonine-protein kinase PAK 2 (Homo sapiens) (UniProt Q13177). In words: Inhibition of T7 bacteriophage fused human PAK2 at 10 uM by KINOMEscan analysis relative to control.
The target of experiment [21] is Cyclin-dependent kinase 2 homolog (Plasmodium falciparum (isolate K1 / Thailand)) (UniProt Q07785). In words: Inhibition of T7 bacteriophage fused Plasmodium falciparum PK5 at 10 uM by KINOMEscan analysis relative to control.
The target in experiment [22] is Mitogen-activated protein kinase 6 (Homo sapiens) (UniProt Q16659). In words: Inhibition of T7 bacteriophage fused human ERK3 at 10 uM by KINOMEscan analysis relative to control.
In experiment [23] the target is Myosin light chain kinase (Homo sapiens) (UniProt Q32MK0). Kind of experiment: Inhibition of T7 bacteriophage fused human MLCK at 10 uM by KINOMEscan analysis relative to control.
Experiment [24] deals with Insulin receptor (Homo sapiens) (UniProt P06213). In words: Inhibition of T7 bacteriophage fused human INSR at 10 uM by KINOMEscan analysis relative to control; values are per cent of control.
Experiment [25] deals with Receptor tyrosine-protein kinase erbB-2 (Homo sapiens) (UniProt P04626). Kind of experiment: Inhibition of T7 bacteriophage fused human ERBB2 at 10 uM by KINOMEscan analysis relative to control.
Experiment [26] addresses Tyrosine-protein kinase HCK (Homo sapiens) (UniProt P08631). In words: Inhibition of T7 bacteriophage fused human HCK at 10 uM by KINOMEscan analysis relative to control.
Experiment [27] deals with Mast/stem cell growth factor receptor Kit (Homo sapiens) (UniProt P10721). In words: Inhibition of T7 bacteriophage fused human KIT at 10 uM by KINOMEscan analysis relative to control.
Experiment [28] deals with Aurora kinase B (Homo sapiens) (UniProt Q96GD4). Kind of experiment: Inhibition of T7 bacteriophage fused human AURKB at 10 uM by KINOMEscan analysis relative to control.
Experiment [29] addresses MAP kinase-activated protein kinase 5 (Homo sapiens) (UniProt Q8IW41). Kind of experiment: Inhibition of T7 bacteriophage fused human MAPKAPK5 at 10 uM by KINOMEscan analysis relative to control; values are per cent of control.
Experiment [30] concerns Epidermal growth factor receptor (Homo sapiens), P00533 [UNDEFINED MUTATION]. Kind of experiment: Inhibition of T7 bacteriophage fused human EGFR E746/A750del mutant at 10 uM by KINOMEscan analysis relative to control; values are per cent of control.

Cyclin-dependent kinase 2 homolog (Plasmodium falciparum (isolate K1 / Thailand)), sequence (Q07785 whole entry, the tested form may be a part): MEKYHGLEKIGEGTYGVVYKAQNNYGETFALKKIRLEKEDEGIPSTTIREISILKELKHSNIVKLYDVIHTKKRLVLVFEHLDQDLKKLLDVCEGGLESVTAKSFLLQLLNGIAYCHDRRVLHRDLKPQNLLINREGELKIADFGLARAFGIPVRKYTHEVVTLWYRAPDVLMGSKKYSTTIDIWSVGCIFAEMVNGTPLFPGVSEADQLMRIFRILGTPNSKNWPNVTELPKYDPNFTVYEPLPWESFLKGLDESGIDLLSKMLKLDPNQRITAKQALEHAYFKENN
Serine/threonine-protein kinase VRK2 (Homo sapiens), sequence (Q86Y07 whole entry, the tested form may be a part): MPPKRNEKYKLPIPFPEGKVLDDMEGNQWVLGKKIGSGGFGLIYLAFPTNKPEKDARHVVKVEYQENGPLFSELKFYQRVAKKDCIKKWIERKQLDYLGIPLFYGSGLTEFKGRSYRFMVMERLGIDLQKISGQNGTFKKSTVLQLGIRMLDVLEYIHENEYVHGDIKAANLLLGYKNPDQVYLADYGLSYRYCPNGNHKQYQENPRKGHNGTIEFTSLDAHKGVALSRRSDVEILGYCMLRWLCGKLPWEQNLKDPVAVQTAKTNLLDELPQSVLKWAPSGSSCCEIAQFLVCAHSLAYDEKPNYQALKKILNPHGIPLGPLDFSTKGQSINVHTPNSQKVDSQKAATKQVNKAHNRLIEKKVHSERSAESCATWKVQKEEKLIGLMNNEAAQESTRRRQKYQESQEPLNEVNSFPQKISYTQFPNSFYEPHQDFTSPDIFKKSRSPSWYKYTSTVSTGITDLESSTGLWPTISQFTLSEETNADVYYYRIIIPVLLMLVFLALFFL
SRSF protein kinase 2 (Homo sapiens), sequence (P78362 whole entry, looked up, the tested form may be a part): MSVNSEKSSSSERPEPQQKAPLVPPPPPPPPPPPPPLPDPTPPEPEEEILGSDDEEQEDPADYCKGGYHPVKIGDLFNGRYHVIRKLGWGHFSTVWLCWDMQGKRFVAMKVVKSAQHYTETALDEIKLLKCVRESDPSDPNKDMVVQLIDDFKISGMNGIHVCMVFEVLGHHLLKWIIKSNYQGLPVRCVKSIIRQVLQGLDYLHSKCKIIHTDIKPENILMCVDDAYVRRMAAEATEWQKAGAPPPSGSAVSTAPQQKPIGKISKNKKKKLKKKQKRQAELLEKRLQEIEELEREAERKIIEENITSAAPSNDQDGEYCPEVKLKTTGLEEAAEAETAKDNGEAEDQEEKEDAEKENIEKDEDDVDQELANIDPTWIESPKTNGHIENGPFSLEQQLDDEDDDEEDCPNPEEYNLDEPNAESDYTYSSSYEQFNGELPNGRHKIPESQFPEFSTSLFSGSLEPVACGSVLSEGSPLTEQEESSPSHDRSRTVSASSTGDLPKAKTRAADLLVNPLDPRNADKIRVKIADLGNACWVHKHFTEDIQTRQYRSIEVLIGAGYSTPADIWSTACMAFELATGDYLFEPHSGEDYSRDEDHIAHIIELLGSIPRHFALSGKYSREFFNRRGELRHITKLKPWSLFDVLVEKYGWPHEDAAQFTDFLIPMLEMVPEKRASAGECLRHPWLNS
Peripheral plasma membrane protein CASK (Homo sapiens), sequence (O14936 whole entry, looked up, the tested form may be a part): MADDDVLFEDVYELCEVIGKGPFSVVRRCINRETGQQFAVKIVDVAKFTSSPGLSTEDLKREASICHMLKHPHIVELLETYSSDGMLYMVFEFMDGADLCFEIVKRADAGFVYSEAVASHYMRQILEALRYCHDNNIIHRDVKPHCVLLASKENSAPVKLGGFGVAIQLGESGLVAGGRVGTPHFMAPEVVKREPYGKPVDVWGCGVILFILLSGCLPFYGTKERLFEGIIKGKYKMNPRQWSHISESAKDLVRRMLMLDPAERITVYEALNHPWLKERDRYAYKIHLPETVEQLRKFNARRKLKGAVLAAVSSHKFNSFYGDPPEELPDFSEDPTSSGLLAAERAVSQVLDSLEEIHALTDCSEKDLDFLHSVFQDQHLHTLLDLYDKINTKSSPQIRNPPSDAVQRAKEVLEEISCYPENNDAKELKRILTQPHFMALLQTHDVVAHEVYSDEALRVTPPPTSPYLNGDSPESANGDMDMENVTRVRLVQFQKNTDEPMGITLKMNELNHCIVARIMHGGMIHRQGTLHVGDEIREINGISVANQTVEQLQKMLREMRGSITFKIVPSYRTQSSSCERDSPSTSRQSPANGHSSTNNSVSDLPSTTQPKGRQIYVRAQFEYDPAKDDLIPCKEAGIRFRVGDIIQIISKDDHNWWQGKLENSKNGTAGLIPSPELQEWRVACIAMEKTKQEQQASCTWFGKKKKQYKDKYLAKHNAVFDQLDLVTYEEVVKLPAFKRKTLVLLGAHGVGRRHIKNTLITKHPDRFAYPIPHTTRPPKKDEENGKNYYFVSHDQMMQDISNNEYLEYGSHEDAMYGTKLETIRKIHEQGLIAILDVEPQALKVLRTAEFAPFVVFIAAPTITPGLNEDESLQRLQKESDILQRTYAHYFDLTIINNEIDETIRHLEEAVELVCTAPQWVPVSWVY
Mast/stem cell growth factor receptor Kit (Homo sapiens), sequence (P10721 whole entry, the tested form may be a part): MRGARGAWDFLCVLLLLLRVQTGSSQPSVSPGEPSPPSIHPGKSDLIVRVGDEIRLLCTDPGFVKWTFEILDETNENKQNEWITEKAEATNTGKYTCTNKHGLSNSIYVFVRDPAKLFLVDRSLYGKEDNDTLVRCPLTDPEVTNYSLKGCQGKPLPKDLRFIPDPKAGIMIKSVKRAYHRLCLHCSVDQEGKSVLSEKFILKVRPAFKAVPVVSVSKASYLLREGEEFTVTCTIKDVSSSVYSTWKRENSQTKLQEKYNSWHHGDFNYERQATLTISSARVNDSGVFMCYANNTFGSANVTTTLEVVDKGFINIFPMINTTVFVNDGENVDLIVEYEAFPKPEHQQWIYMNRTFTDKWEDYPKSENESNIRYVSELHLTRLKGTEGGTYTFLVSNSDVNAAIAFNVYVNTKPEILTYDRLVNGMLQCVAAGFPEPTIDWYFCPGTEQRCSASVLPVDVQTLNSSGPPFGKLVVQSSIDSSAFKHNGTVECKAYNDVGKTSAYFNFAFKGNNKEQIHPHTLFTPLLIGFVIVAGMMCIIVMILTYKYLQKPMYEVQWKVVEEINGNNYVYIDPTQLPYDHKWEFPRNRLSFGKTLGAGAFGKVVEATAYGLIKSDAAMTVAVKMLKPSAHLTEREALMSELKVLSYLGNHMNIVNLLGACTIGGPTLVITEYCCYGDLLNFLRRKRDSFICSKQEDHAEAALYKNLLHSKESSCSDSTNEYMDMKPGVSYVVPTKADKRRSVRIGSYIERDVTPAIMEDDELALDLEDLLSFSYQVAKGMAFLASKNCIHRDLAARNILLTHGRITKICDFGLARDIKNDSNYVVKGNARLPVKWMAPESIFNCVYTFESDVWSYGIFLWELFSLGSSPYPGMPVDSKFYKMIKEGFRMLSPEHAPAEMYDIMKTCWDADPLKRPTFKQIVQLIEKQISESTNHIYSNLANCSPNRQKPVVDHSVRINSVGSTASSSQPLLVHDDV
Cyclin-dependent kinase 11B (Homo sapiens), sequence (P21127 whole entry, the tested form may be a part): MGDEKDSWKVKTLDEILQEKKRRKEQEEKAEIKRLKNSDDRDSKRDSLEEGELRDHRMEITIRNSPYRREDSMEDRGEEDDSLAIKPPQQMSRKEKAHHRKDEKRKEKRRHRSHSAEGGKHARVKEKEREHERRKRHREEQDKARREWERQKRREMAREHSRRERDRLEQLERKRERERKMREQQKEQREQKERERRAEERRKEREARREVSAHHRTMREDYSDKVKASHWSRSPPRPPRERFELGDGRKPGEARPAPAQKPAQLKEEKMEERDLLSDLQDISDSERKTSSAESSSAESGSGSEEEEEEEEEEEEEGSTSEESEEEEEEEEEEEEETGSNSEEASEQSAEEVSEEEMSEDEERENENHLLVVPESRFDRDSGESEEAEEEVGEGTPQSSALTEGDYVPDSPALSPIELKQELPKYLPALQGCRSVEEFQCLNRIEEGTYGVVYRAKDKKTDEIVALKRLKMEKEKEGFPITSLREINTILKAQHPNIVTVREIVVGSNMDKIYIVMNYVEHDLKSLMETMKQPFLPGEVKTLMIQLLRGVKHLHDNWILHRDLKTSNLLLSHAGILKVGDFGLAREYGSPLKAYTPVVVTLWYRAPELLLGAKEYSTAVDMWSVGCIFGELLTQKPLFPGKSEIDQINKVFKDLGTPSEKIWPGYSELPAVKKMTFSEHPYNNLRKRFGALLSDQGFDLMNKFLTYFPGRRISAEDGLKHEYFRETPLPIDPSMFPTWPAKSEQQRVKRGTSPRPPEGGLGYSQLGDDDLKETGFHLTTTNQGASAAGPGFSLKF
Aurora kinase B (Homo sapiens), sequence (Q96GD4 whole entry, the tested form may be a part): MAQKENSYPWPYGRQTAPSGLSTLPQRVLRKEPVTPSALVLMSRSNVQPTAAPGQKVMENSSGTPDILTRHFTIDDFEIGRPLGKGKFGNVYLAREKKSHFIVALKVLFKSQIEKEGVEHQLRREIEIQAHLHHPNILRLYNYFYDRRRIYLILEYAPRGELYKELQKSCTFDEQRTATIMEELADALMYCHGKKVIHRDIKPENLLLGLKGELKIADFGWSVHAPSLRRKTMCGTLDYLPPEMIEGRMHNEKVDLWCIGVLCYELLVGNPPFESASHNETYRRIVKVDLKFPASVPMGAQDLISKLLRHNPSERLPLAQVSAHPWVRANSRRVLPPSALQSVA
Tyrosine-protein kinase HCK (Homo sapiens), sequence (P08631 2-526 limits assumed): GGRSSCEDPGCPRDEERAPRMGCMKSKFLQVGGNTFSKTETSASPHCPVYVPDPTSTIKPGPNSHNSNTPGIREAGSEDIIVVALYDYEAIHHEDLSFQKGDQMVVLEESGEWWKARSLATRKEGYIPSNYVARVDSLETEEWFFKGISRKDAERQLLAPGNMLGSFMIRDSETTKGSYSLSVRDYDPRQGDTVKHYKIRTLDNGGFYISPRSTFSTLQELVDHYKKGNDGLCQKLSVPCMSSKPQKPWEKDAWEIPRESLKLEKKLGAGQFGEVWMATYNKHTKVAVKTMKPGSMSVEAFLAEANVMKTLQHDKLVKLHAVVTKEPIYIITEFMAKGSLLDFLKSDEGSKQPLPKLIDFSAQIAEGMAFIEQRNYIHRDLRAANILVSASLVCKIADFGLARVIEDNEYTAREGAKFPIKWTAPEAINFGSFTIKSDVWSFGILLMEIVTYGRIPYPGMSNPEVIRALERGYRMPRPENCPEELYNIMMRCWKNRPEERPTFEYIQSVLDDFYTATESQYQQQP

As for `COc1cc(C(=O)N2CCC(N3CCN(C)CC3)CC2)ccc1Nc1ncc2c(n1)N(C1CCCC1)c1ccccc1C(=O)N2C`, the figures for the inhibition in experiment [1], in experiment [2] and in [3] were 100%, 100% and 0.2%, respectively.
Turning to `COc1cc(N2CCC(N3CCN(C)CC3)CC2)ccc1Nc1ncc2c(n1)N(C)c1ccccc1C(=O)N2C`, the inhibition was determined as 100% in experiment [4]; 100% in experiment [5]; 100% in experiment [6]; 100% in [7]; 100% in experiment [9]; 20% in experiment [10]. The inhibition in experiment [11] was found to be 100%; in experiment [12], 100%; in [14], 100%; in experiment [1] it was 85%; in experiment [16], 86%; in [17], 86%. Moreover, the inhibition in experiment [19] was 100%; in experiment [20] it was 65%; in [2] it was 99%; in [21], 100%; in [22], 100%; in [23] it was 100%. The inhibition in [25] was determined as 100%; in [26], 100%; in [27] it was 100%; in experiment [28], 38%. In addition, the residual activity in experiment [8] came out at 34%; in [13] it was 4.2%; in experiment [15], 91%; in [18], 95%; in experiment [24], 84%; in [29], 97%. The residual activity in experiment [30] amounted to 72%.
Regarding `CCOc1cc(C(=O)N2CCC(N3CCN(C)CC3)CC2)ccc1Nc1ncc2c(n1)N(C1CCCC1)c1ccccc1C(=O)N2C`, the inhibition in experiment [14] and in [21] was 100% in each case.
